Results on 6 molecules are retold here after patent publication US20240115592A1, “PGC-1alpha EXPRESSION PROMOTING AGENT, MUSCLE-BUILDING AGENT AND MITOCHONDRIA ACTIVATING AGENT” (YAMASA CORPORATION, priority 2020, published 2024).

The subject of assay [1] is Myogenin. Briefly: Myogenin gene expression promoting effect (II) (Example 4). To be noted: C2C12 cells, 4-6 days, vs control. Format: cell-based, Mouse. How it is done:
(§1) Mouse myoblast cell line C2C12 cells (RIKEN BRC, RCB0987) were suspended in growth medium (Dulbecco's modified Eagle's Medium supplemented with 10% FBS, 100 units/ml of penicillin, 100 μg/ml of streptomycin), seeded in 24-well plates, and incubated in a 37° C., 5% CO2 incubator until the cell density reached 70-90%. […] After culturing the cells for 4-6 days while exchanging the medium once every 2 days, the medium was removed, and total RNA was extracted from the cells using the RNeasy Mini kit (QIAGEN).
(§2) A level of Myogenin mRNA expression, a marker gene for myotube cell differentiation, was evaluated by the following method:
Cell culture and treatment with the test substances, total RNA extraction and reverse transcription reaction were performed as in Example 2. Real-time PCR analysis was used to determine mRNA expression levels of Myogenin and β-actin as an internal standard. Statistical analysis was also performed in the same method as that of Example 1.

For assay [2], the system named is PGC-1α. Description: PGC-1α gene expression promoting effect (II), real-time PCR (Example 2). Format: cell-based, Mouse. To be noted: C2C12 cells, 4-6 days, corrected by β-actin, vs control; FIG. 2. How it is done: as §1
Using the total RNA as a template, a reverse transcription reaction solution was prepared using the ReverTra Ace® qPCR RT Kit (Toyobo). The reverse transcription reaction solution, GoTaq® qPCR Master Mix (Promega), and a real-time PCR device, Thermal Cycler Dice Real Time System (Takara Bio), were used to measure the mRNA expression levels of PGC-1α and β-actin as an internal standard. Analysis was performed by relative quantification, and the mRNA expression level was corrected using the β-actin mRNA expression level as an endogenous control. Statistical analysis was performed by t-test or Dunnett's multiple comparison test using the differentiation induction medium treatment group without the test substances as a control. The threshold of statistical significance was set to 5%.
A general note: In qPCR the cycle at which signal appears reflects the starting amount.

Assay [3] deals with C2C12 cells. Briefly: Myotube cell diameter increasing effect (II) (Example 10). To be noted: 5-6 days; for myotube cell diameter (photographs): FIG. 13; for myotube cell diameter (ImageJ, average of 50 cells): vs control, FIGS. 14 to 17. Format: cell-based, Mouse. The protocol:
Cell culture and addition of test substances were carried out by the same method as that of Example 2. The cells were cultured for 5-6 days while exchanging a differentiation inducing medium containing the test substances once every 2 days, and five positions near the center of the wells were then photographed at magnifications of 100.
Also, using ImageJ image analysis software, the diameters of ten myotube cells per a photograph were measured in order from the myotube cell having the largest diameter, and an average of 50 cells was determined to be the diameter of the myotube cell in each well. Statistical analysis was also performed by the same method as that of Example 2.

Assay [4] concerns Myh7. Description: Myh7 gene expression promoting effect (II) (Example 6). Format: cell-based, Mouse. To be noted: C2C12 cells, 4-6 days, vs control. How it is done:
as §1
(§3) A level of Myh7 mRNA expression encoding a slow-muscle type myosin protein was evaluated using the following method:
Cell culture and treatment with the test substances, total RNA extraction and reverse transcription reaction were performed as in Example 2. Real-time PCR analysis was used to determine mRNA expression levels of Myh7 and β-actin as an internal standard. Statistical analysis was also performed in the same method as that of Example 1.

Assay [5] relates to C2C12 cells. Briefly: Mitochondrial DNA copy number increasing effect (II) (Example 8). Format: cell-based, Mouse. To be noted: 6 days, n=3, FIG. 10. The protocol:
Cell culture and addition of test substances were carried out in the same method as that of Example 2. The cells were cultured for 6 days, the medium was then removed and total DNA was extracted from the cells using DNeasy Blood & Tissue kit (QIAGEN).
Extracted DNA, GoTaq® qPCR Master Mix (Promega) and a real-time PCR device, Thermal Cycler Dice Real Time System (Takara Bio), were used to determine COX2 (Cytochrome c oxidase subunit 2), a gene encoded in the mitochondrial DNA, and PPIA (Cyclophilin A), a gene encoded in […] DNA, as an internal standard.
The amount of COX2 present relative to the amount of PPIA present was evaluated as the mitochondrial DNA copy number. Statistical analysis was performed by the same method as that of Example 1. This Example was studied with n=3.

In assay [6] the test system is Myogenin. Description: Myogenin gene expression promoting effect (I) (Example 3). The format is cell-based, Mouse. To be noted: C2C12 cells, disodium cytidylate, 6 days, vs control; FIG. 3. How it is done:
as §2
(§4) Mouse myoblast cell line C2C12 cells were suspended in growth medium, seeded in 24-well plates, and incubated in a 37° C., 5% CO2 incubator until the cell density reached 70-90%. The growth medium was removed, and exchanged to a differentiation induction medium containing 1 mM disodium cytidylate or 1 mM disodium cytidylate or containing no cytidylic acid. The cells were cultured for 6 days while exchanging the medium once every 2 days. Total RNA extraction and reverse transcription reaction were performed as in Example 1. Real-time PCR analysis was used to determine mRNA expression levels of Myogenin and β-actin as an internal standard. Statistical analysis was performed in the same method as that of Example 1.

Assay [7] concerns Myh7. Description: Myh7 gene expression promoting effect (I) (Example 5). To be noted: C2C12 cells, 5 mM disodium cytidylate, 4 days, vs control; FIG. 6. The format is cell-based, Mouse. The protocol: as §3
as §4, with “5” for “1 mM disodium cytidylate or 1”, “4” for “6”, “days, and the medium was then removed, and the total” for “days. Total”, “Myh7” for “Myogenin”, “Welch's t-test” for “Statistical analysis”, “used for statistical analysis. The threshold for statistical significance was set to 5%.” for “performed in the same method as that of Example 1.”

Assay [8] deals with C2C12 cells. Briefly: Mitochondrial DNA copy number increasing effect (I) (Example 7). Format: cell-based, Mouse. To be noted: 1 mM or 5 mM disodium cytidylate, 6 days, n=3, FIG. 9. How it is done: Cell culture and addition of test substance were carried out by the same method as that of Example 1. The cells were cultured for 6 days while exchanging a differentiation induction medium containing the test substance once every 2 days, the medium was then removed and total DNA was extracted from the cells using DNeasy Blood & Tissue kit (QIAGEN). Extracted DNA, GoTaq® qPCR Master Mix (Promega) and a real-time PCR device, Thermal Cycler Dice Real Time System (Takara Bio), were used to determine COX2 (Cytochrome c oxidase subunit 2), a gene encoded in the mitochondrial DNA, and PPIA (Cyclophilin A), a gene encoded in […] DNA as an internal standard. The amount of COX2 present relative to the amount of PPIA present was evaluated as the mitochondrial DNA copy number. Statistical analysis was performed by the same method as that of Example 1. This Example was studied with n=3.

The subject of assay [9] is PGC-1α. Briefly: PGC-1α gene expression promoting effect (I), real-time PCR (Example 1). Format: cell-based, Mouse. To be noted: C2C12 cells, 1 mM or 5 mM disodium cytidylate, 6 days, corrected by β-actin, vs control; FIG. 1. The protocol: Mouse myoblast cell line C2C12 cells (RIKEN BRC, RCB0987) were suspended in growth medium (Dulbecco's modified Eagle's Medium supplemented with 10% FBS, 100 units/ml of penicillin, 100 μg/ml of streptomycin), seeded in 24-well plates, and incubated in a 37° C., 5% CO2 incubator until the cell density reached 70-90%. […] After culturing the cells for 6 days while exchanging the medium once every 2 days, the medium was removed, and total RNA was extracted from the cells using the RNeasy Mini kit (QIAGEN). Unless otherwise stated, each sample n=6 was used for the study, including the following Examples. Using the total RNA as a template, a reverse transcription reaction solution was prepared using the ReverTra Ace® qPCR RT Kit (Toyobo). The reverse transcription reaction solution, GoTaq® qPCR Master Mix (Promega), and a real-time PCR device, Thermal Cycler Dice Real Time System (Takara Bio), were used to measure mRNA expression levels of PGC-1α and β-actin as an internal standard. Analysis was performed by relative quantification, and mRNA expression levels were corrected using the β-actin mRNA expression level as an endogenous control. Dunnett's multiple comparison test was performed for statistical analysis. The threshold of statistical significance was set to 5%.

Assay [10] concerns C2C12 cells. Briefly: Myotube cell diameter increasing effect (I) (Example 9). To be noted: 6 days; for Average myotube cell diameter: control 53.9. The format is cell-based, Mouse. The protocol:
Cell culture and addition of a test substance were carried out by the same method as that of Example 1. The cells were cultured for 6 days while exchanging a differentiation inducing medium containing the test substance once every 2 days, and five positions near the center of the wells were then photographed at magnifications of 100. Using ImageJ image analysis software, the diameters of ten myotube cells per a photograph were measured in order from the myotube cell having the largest diameter, and an average of 50 cells was determined to be the diameter of the myotube cell in each well. Statistical analysis was performed by the same method as that of Example 1. Photographs of representative examples of the respective groups are shown in FIG. 11, and the measured results of the average myotube cell diameter are shown in Table 1 and FIG. 12.

In assay [11] the test system is PGC-1α. To be noted: neurons; Patent Literature 1; cited from earlier work.
A further assay deals with mitochondria. To be noted: Patent Literature 3; cited from earlier work.

For the molecule `O=c1ccn([C@@H]2O[C@H](COP(=O)(O)O)[C@@H](O)[C@H]2O)c(=O)[nH]1` [uridylic acid], the “Myogenin mRNA expression level” value in the assay on Myogenin [1] (FIG. 4) is “remarkably enhanced”. Also, in the assay with PGC-1α [2], the “PGC-1α mRNA expression level” value was “concentration-dependently and remarkably enhanced”. In the assay on C2C12 cells [3], the “myotube cell diameter (photographs)” value is given as “significantly increased” and the “myotube cell diameter (ImageJ, average of 50 cells)” value is “significantly increased”. In addition, the “Myh7 mRNA expression level” value with Myh7 [4] (FIG. 7) is “remarkably enhanced”. In the assay on C2C12 cells [5], the “mitochondrial DNA copy number (COX2 relative to PPIA)” value was “concentration-dependently and remarkably enhanced”.
In the case of `Nc1ccn([C@@H]2O[C@H](COP(=O)(O)O)[C@@H](O)[C@H]2O)c(=O)n1` [cytidylic acid], the “Myogenin mRNA expression level” value is “concentration-dependently and remarkably enhanced” in the assay with Myogenin [6]; “remarkably enhanced” with Myogenin [1] (FIG. 4); “remarkably enhanced” with Myogenin [1] (FIG. 5). Besides, the “PGC-1α mRNA expression level” value in the assay on PGC-1α [2] was “concentration-dependently and remarkably enhanced”; with PGC-1α [9], “concentration-dependently and remarkably enhanced”. The entries for the “Myh7 mRNA expression level” value with Myh7 [7] and in the assay on Myh7 [4] (FIG. 7) were “markedly enhanced” and “remarkably enhanced”, respectively. In addition, the “myotube cell diameter (photographs)” value in the assay on C2C12 cells [3] is “significantly increased”. In the assay with C2C12 cells [3], the “myotube cell diameter (ImageJ, average of 50 cells)” value was “concentration-dependently and remarkably increased”. The “mitochondrial DNA copy number (COX2 relative to PPIA)” value is “concentration-dependently and remarkably enhanced” in the assay on C2C12 cells [8]; “concentration-dependently and remarkably enhanced” with C2C12 cells [5]. The “Average myotube cell diameter” value with C2C12 cells [10] (1 mM CMP) turned out to be 61.1 μm; in the assay on C2C12 cells [10] (5 mM CMP), 62.5 μm. Further, the myotube cell diameter entry in the assay with C2C12 cells [10] (vs control, FIGS. 11 and 12) was “concentration-dependently and remarkably increased”.
Consider `CCc1oc(=O)c(Cc2c(O)c(C)c(CC)oc2=O)c(O)c1C` [Helipyrone A], for which the PGC-1α production entry in the assay on PGC-1α [11] is recorded as “promotes PGC-1α production in neurons”.
Turning to `O=C(O)c1cc(C(=O)O)c2c(n1)C(=O)C(=O)c1cc(C(=O)O)[nH]c1-2` [pyrroloquinoline quinone], the mitochondria activating effects entry in the assay on mitochondria is listed as “exhibits mitochondria activating effects”.
`Nc1ccn([C@@H]2O[C@H](CO)[C@@H](O)[C@H]2O)c(=O)n1` [cytidine]: in the assay on Myogenin [1] (FIG. 5), the “Myogenin mRNA expression level” value is “excellent myotube cell differentiation promoting effect”. Moreover, in the assay with C2C12 cells [3], the “myotube cell diameter (photographs)” value is given as “significantly increased”; the “myotube cell diameter (ImageJ, average of 50 cells)” value is “concentration-dependently and remarkably increased”. In the assay on Myh7 [4] (FIG. 8), the “Myh7 mRNA expression level” value is on record as “markedly enhanced”.
On to `O=c1ccn([C@@H]2O[C@H](CO)[C@@H](O)[C@H]2O)c(=O)[nH]1` [uridine], for which, in the assay on C2C12 cells [3], the “myotube cell diameter (photographs)” value is given as “significantly increased”; the “myotube cell diameter (ImageJ, average of 50 cells)” value was “concentration-dependently and remarkably increased”.
